# Measured values from the supplement of paper PMC8253809.
# What was measured:
# [1] = tested on: HABS (astrocyte control); assay: maximal growth inhibition (yFin) relative to DMSO / staurosporine; higher = more efficacious
# Procedure, shortened: (§1)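 EC50 and maximal response (yFin) were derived from the lowest-AICc fit, either three- or four-parameter log-logistic. The data were pooled CellTiter-Glo luminescence values, log2-transformed and normalised per plate to % activity between negative (solvent) and positive controls. Patient-derived pHGG/DIPG cell lines and astrocyte controls on 1% Geltrex-coated 384-well plates received a 10-point threefold dilution series (mean top concentration 35 μM) by pin tool, in triplicate, for 7 days (iAstro 3 days) at 37 °C, 5% CO2.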
# [2] = tested on: SUDIPGXIX (diffuse intrinsic pontine glioma line); assay: as above
# Procedure, shortened: as §1
# [3] = tested on: SUDIPGVI (diffuse intrinsic pontine glioma line); assay: as above
# Procedure, shortened: as §1
# [4] = tested on: SUDIPGIV (diffuse intrinsic pontine glioma line); assay: as above
# Procedure, shortened: as §1
# [5] = tested on: SUDIPGXIII (diffuse intrinsic pontine glioma line); assay: as above
# Procedure, shortened: as §1
# [6] = tested on: HGGX39 (paediatric high-grade glioma line); assay: as above
# Procedure, shortened: as §1
# [7] = tested on: HGGX42 (H3.3 G34R paediatric high-grade glioma line); assay: as above
# Procedure, shortened: as §1
# [8] = tested on: DIPGX9 (diffuse intrinsic pontine glioma line); assay: as above
# Procedure, shortened: as §1
# [9] = tested on: HGGX6 (H3.3 G34R paediatric high-grade glioma line); assay: as above
# Procedure, shortened: as §1
# [10] = tested on: DIPGX29 (H3.3 K27M diffuse intrinsic pontine glioma line); assay: as above
# Procedure, shortened: as §1
# [11] = tested on: SUDIPGXVII (diffuse intrinsic pontine glioma line); assay: as above
# Procedure, shortened: as §1
# [12] = tested on: HABS; assay: area under dose-response curve of % growth inhibition (log2 RLU vs DMSO / staurosporine), 1e-11 to 1e-4 M (% x log10 M); higher = more growth inhibition
# Procedure, shortened: (§2)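 Cells were exposed in triplicate for 7 days (iAstro: 3 days) at 37 °C, 5% CO2 to a 10-point series of threefold dilutions with a mean top concentration of 35 μM. These were patient-derived pHGG/DIPG lines plus astrocytes, grown on 384-well plates coated with 1% Geltrex. Readout was CellTiter-Glo luminescence, log2-transformed and set per plate to % activity between solvent and positive controls, from which area under the curve was derived by trapezoid rule on a log-logistic fit or, failing that, a smoothing spline.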
# [13] = tested on: SUDIPGXIX; assay: as above
# Procedure, shortened: as §2
# [14] = tested on: SUDIPGVI; assay: as above
# Procedure, shortened: as §2
# [15] = tested on: DIPGX7 (H3.3 K27M diffuse intrinsic pontine glioma line); assay: as above
# Procedure, shortened: as §2
# [16] = tested on: SUDIPGXXI (diffuse intrinsic pontine glioma line); assay: as above
# Procedure, shortened: as §2
# [17] = tested on: SUDIPGIV; assay: as above
# Procedure, shortened: as §2
# [18] = tested on: DIPGX37 (H3.3 K27M diffuse intrinsic pontine glioma line); assay: as above
# Procedure, shortened: as §2
# [19] = tested on: SUDIPGXIII; assay: as above
# Procedure, shortened: as §2
# [20] = tested on: HGGX39; assay: as above
# Procedure, shortened: as §2
# [21] = tested on: HGGX2 (paediatric high-grade glioma line); assay: as above
# Procedure, shortened: as §2
# [22] = tested on: HGGX42; assay: as above
# Procedure, shortened: as §2
# [23] = tested on: DIPGX9; assay: as above
# Procedure, shortened: as §2
# [24] = tested on: HGGX6; assay: as above
# Procedure, shortened: as §2
# [25] = tested on: DIPGX29; assay: as above
# Procedure, shortened: as §2
# [26] = tested on: iAstro (astrocyte control); assay: as above
# Procedure, shortened: as §2
# [27] = tested on: SUDIPGXVII; assay: as above
# Procedure, shortened: as §2
# [28] = tested on: HABS; assay: EC50 (inflection of fitted growth-inhibition curve) (log10 M)
# Procedure, shortened: as §1
# [29] = tested on: SUDIPGXIX; assay: as above
# Procedure, shortened: as §1
# [30] = tested on: SUDIPGVI; assay: as above
# Procedure, shortened: as §1
# [31] = tested on: SUDIPGIV; assay: as above
# Procedure, shortened: as §1
# [32] = tested on: SUDIPGXIII; assay: as above
# Procedure, shortened: as §1
# [33] = tested on: HGGX39; assay: as above
# Procedure, shortened: as §1
# [34] = tested on: HGGX42; assay: as above
# Procedure, shortened: as §1
# [35] = tested on: DIPGX9; assay: as above
# Procedure, shortened: as §1
# [36] = tested on: HGGX6; assay: as above
# Procedure, shortened: as §1
# [37] = tested on: DIPGX29; assay: as above
# Procedure, shortened: as §1
# [38] = tested on: SUDIPGXVII; assay: as above
# Procedure, shortened: as §1
# [39] = tested on: DIPGX7; assay: maximal growth inhibition (yFin) relative to DMSO / staurosporine; higher = more efficacious
# Procedure, shortened: as §1
# [40] = tested on: DIPGX37; assay: as above
# Procedure, shortened: as §1
# [41] = tested on: HGGX2; assay: as above
# Procedure, shortened: as §1
# [42] = tested on: iAstro; assay: as above
# Procedure, shortened: as §1
# [43] = tested on: DIPGX7; assay: EC50 (inflection of fitted growth-inhibition curve) (log10 M)
# Procedure, shortened: as §1
# [44] = tested on: DIPGX37; assay: as above
# Procedure, shortened: as §1
# [45] = tested on: HGGX2; assay: as above
# Procedure, shortened: as §1
# [46] = tested on: iAstro; assay: as above
# Procedure, shortened: as §1
compound,measurement,setting,value
Nc1ccc2ncnc(NCCc3ccc(Oc4ccccc4)cc3)c2c1 [EVP4593],maximal growth inhibition,[1],37.7%
same,maximal growth inhibition,[2],47.8%
same,maximal growth inhibition,[3],54.6%
same,maximal growth inhibition,[4],74.9%
same,maximal growth inhibition,[5],84.8%
same,maximal growth inhibition,[6],46.7%
same,maximal growth inhibition,[7],44.9%
same,maximal growth inhibition,[8],46.2%
same,maximal growth inhibition,[9],38.5%
same,maximal growth inhibition,[10],45.1%
same,maximal growth inhibition,[11],35.9%
same,area under dose-response curve,[12],141
same,area under dose-response curve,[13],178
same,area under dose-response curve,[14],242
same,area under dose-response curve,[15],447
same,area under dose-response curve,[16],224
same,area under dose-response curve,[17],296
same,area under dose-response curve,[18],275
same,area under dose-response curve,[19],348
same,area under dose-response curve,[20],216
same,area under dose-response curve,[21],71.8
same,area under dose-response curve,[22],173
same,area under dose-response curve,[23],183
same,area under dose-response curve,[24],156
same,area under dose-response curve,[25],179
same,area under dose-response curve,[26],113
same,area under dose-response curve,[27],171
same,EC50 (log10 M),[28],-7.75
same,EC50 (log10 M),[29],-7.71
same,EC50 (log10 M),[30],-8.43
same,EC50 (log10 M),[31],-7.95
same,EC50 (log10 M),[32],-8.11
same,EC50 (log10 M),[33],-8.62
same,EC50 (log10 M),[34],-7.84
same,EC50 (log10 M),[35],-7.97
same,EC50 (log10 M),[36],-8.04
same,EC50 (log10 M),[37],-7.98
same,EC50 (log10 M),[38],-8.18
CO[C@H]1C[C@@H]2CC[C@@H](C)[C@@](O)(O2)C(=O)C(=O)N2CCCC[C@H]2C(=O)O[C@H]([C@H](C)C[C@@H]2CC[C@@H](OCCO)[C@H](OC)C2)CC(=O)[C@H](C)/C=C(\C)[C@@H](O)[C@@H](OC)C(=O)[C@H](C)C[C@H](C)/C=C/C=C/C=C/1C [EVEROLIMUS],maximal growth inhibition,[1],86.6%
same,maximal growth inhibition,[2],90.9%
same,maximal growth inhibition,[39],98.8%
same,maximal growth inhibition,[4],87.7%
same,maximal growth inhibition,[40],100%
same,maximal growth inhibition,[5],85.2%
same,maximal growth inhibition,[6],97.2%
same,maximal growth inhibition,[41],94.8%
same,maximal growth inhibition,[7],95.7%
same,maximal growth inhibition,[9],50%
same,maximal growth inhibition,[10],107%
same,maximal growth inhibition,[42],85%
same,maximal growth inhibition,[11],73.8%
same,area under dose-response curve,[12],54.8
same,area under dose-response curve,[13],72
same,area under dose-response curve,[14],113
same,area under dose-response curve,[15],75.4
same,area under dose-response curve,[16],203
same,area under dose-response curve,[17],97.4
same,area under dose-response curve,[18],103
same,area under dose-response curve,[19],92.4
same,area under dose-response curve,[20],99.1
same,area under dose-response curve,[21],78.5
same,area under dose-response curve,[22],107
same,area under dose-response curve,[23],149
same,area under dose-response curve,[24],62.9
same,area under dose-response curve,[25],95.9
same,area under dose-response curve,[26],96.6
same,area under dose-response curve,[27],74.4
same,EC50 (log10 M),[28],-4.63
same,EC50 (log10 M),[29],-4.79
same,EC50 (log10 M),[43],-4.76
same,EC50 (log10 M),[31],-4.85
same,EC50 (log10 M),[44],-4.6
same,EC50 (log10 M),[32],-4.77
same,EC50 (log10 M),[33],-4.56
same,EC50 (log10 M),[45],-4.67
same,EC50 (log10 M),[34],-4.78
same,EC50 (log10 M),[36],-4.78
same,EC50 (log10 M),[37],-4.57
same,EC50 (log10 M),[46],-4.83
same,EC50 (log10 M),[38],-4.83
CC[C@]1(O)C[C@H]2CN(CCc3c([nH]c4ccccc34)[C@@](C(=O)OC)(c3cc4c(cc3OC)N(C=O)[C@H]3[C@@](O)(C(=O)OC)[C@H](OC(C)=O)[C@]5(CC)C=CCN6CC[C@]43[C@@H]65)C2)C1 [VINCRISTINE],maximal growth inhibition,[2],98.2%
same,maximal growth inhibition,[3],77.9%
same,maximal growth inhibition,[39],95.3%
same,maximal growth inhibition,[4],101%
same,maximal growth inhibition,[5],64%
same,maximal growth inhibition,[41],92.8%
same,maximal growth inhibition,[7],97.3%
same,maximal growth inhibition,[42],61.4%
same,area under dose-response curve,[12],200
same,area under dose-response curve,[13],253
same,area under dose-response curve,[14],256
same,area under dose-response curve,[15],212
same,area under dose-response curve,[16],606
same,area under dose-response curve,[17],284
same,area under dose-response curve,[18],189
same,area under dose-response curve,[19],123
same,area under dose-response curve,[20],152
same,area under dose-response curve,[21],345
same,area under dose-response curve,[22],103
same,area under dose-response curve,[23],292
same,area under dose-response curve,[24],99.2
same,area under dose-response curve,[25],163
same,area under dose-response curve,[26],127
same,area under dose-response curve,[27],187
same,EC50 (log10 M),[29],-6.46
same,EC50 (log10 M),[30],-7.28
same,EC50 (log10 M),[43],-5.71
same,EC50 (log10 M),[31],-6.56
same,EC50 (log10 M),[32],-5.77
same,EC50 (log10 M),[45],-7.75
same,EC50 (log10 M),[34],-4.84
same,EC50 (log10 M),[46],-5.97
